Experiments:
[1] = test system: HeLa cells; experiment: Cytotoxicity by cell counting kit-8 (CCK-8) viability test; assay type: cell-based; conditions: 0.1 to 100 μM
Description: The cytotoxicity was evaluated in HeLa cells by cell counting kit-8 (CCK-8) viability test.
Particularly, HeLa cells were seeded in a 96-well tissue culture plate at the density of 5,000 cells/well and cultured in 100 μL of DMEM (Dulbecco's Modified Eagle's Medium) supplemented with 10% FBS (fetal bovine serum) for 24 hours. After replacing the medium with 90 μL of a fresh medium, 10 μl of the compound prepared in Preparative Example 4 of various concentrations (final 0.5% DMSO) was added to each well of the plate, and the cells were further cultured for 24 hours and 48 hours. The cells were washed 3 times with a fresh medium to remove extracellular samples, and 100 μl of a fresh medium containing 10% CCK-8 was added to each well of the plate. After incubating the cells at 37° C. for 2 hours, OD450 was measured with a microplate reader (Molecular Devices Co., Menlo Park, Calif., USA). Only the background signal of CCK-8 was subtracted from all the samples. The cell viability was evaluated as the percentage of absorbance of the untreated cells to the control.

[2] = test system: Balb/c mice; experiment: Hematopoietic function of PEGylated rhEPO: hematocrit (HCT) in mice; assay type: in vivo; conditions: normal male Balb/c mice, intravenous 20 μg/kg every 3 days
Description: In order to confirm whether the PEGylated rhEPO obtained in Example 1 maintained the hematopoietic function even after the PEGylation, the following experiment was performed, and the results are shown in FIG. 6.
The rhEPO without PEGylation and the PEGylated rhEPO (PEG-rhEPO) prepared in Example 1 were intravenously injected into Balb/c mice at a dose of 20 μg/kg every 3 days. In vivo activities were compared by measuring hematocrit (HCT), a reliable method for quantification of erythrocytes. As a control, phosphate buffered saline (PBS) was used.
Particularly, normal male Balb/c mice were purchased from Orient Bio Inc. (South Korea). The weight of the mice was 23-25 g, and the mice were housed in groups of 3-4 mice in one cage. Food and water were supplied freely (ad libitum), and each cage was allowed to have a 12-hour light/dark cycle under the conventional animal experiment system of KPC, Korea.
Each sample (rhEPO or PEG-rhEPO) ([…] in DPBS) was injected intravenously into normal male Balb/c mice (50 μL/mouse) every 3 days for 2 weeks. The same amount of DPBS was administered to the control group. A total of 21 mice were used in the experiment. Blood samples were collected every 3 days including day 0 to evaluate the hematopoietic effect. Hematocrit was evaluated by measuring the volume of the packed cells obtained by centrifugation performed immediately after the blood collection. Delta hematocrit (DHematocrit) was determined by the difference between the initial hematocrit for each mouse (day 0) and the hematocrit at each time point.

Row | Compound | Cytotoxicity (cell viability, CCK-8) ([1]; 24 hours) | Cytotoxicity (cell viability, CCK-8) ([1]; 48 hours) | HCT level compared with rhEPO without PEGylation (statistical analysis) [2] | HCT level (hematocrit) over time ([2]; blood sampled every 3 days for 15 days) | HCT level compared with control group (statistical analysis) ([2]; control PBS/DPBS)
1 | N[C@@H](Cc1ccc(OS(=O)(=O)Oc2ccc(C[C@H](N)C(=O)O)cc2)cc1)C(=O)O [Preparative Example 4, (2S,2'S)-3,3′-((sulfonylbis(oxy))bis(4,1-phenylene))bis(2-aminopropanoic Acid)] | did not show cytotoxicity | did not show cytotoxicity | – | – | –
2 | PEG-rhEPO: PEGylated recombinant human erythropoietin, PEG bound by sulfate bond to Tyr-49 | – | – | no significant difference | increased for 15 days | clear difference

— patent publication US12122812B2, “Method for preparing biomaterial having selectively functionalized tyrosine, biomaterial having selectively functionalized tyrosine, and pharmaceutical composition containing same as active ingredient” (SEOUL NATIONAL UNIVERSITY R&DB FOUNDATION, priority 2018, dated 2024)
